This note sets out measurements from JP2006056855A, “免疫賦活剤、抗腫瘍剤、抗老化剤、抗肥満剤及び皮膚化粧料” (Maruzen Pharmaceutical Co Ltd, priority 2004, dated 2006).

Values after ≈ are worked out from the molar mass of the structure shown.

Usually IC50 stands for the point on the concentration scale where inhibition reaches its midpoint. A lower IC50 goes with greater potency.

The subject of test [1] is normal human epidermal keratinocytes (NHEK) [正常ヒト皮膚表皮角化細胞(NHEK)]. Kind of test: Epidermal keratinocyte proliferation test (試験例4), MTT assay. It is filed as cell-based. The settings on record: 72 h, sample solution 3.125 μg/mL, 3 days, St/Ct×100 (no sample = 100%), read-out: epidermal keratinocyte proliferation promotion rate.
The subject of test [2] is human normal skin fibroblasts (NB1RGB) [ヒト正常皮膚線維芽細胞(NB1RGB)]. Kind of test: Fibroblast proliferation test (試験例3), MTT assay. The format is cell-based. As to conditions: 72 h, sample solution 12.5 μg/mL, 100 μL added per well, 3 days, (St−Sb)/(Ct−Cb)×100 (no sample = 100%), read-out: fibroblast proliferation promotion rate. In general terms: Formazan colour is commonly taken as a measure of viable cells.

Test [3] deals with human breast cancer-derived cells (MCF-7) [ヒト乳癌由来細胞(MCF−7)]. Kind of test: Estrogen-like action test (試験例2), MTT assay. It is filed as cell-based. The settings on record: MCF7, sample solution 3.125 μg/mL, A/B×100 (no sample = 100%), read-out: estrogen-like action rate.
In test [4] the target is cyclic AMP phosphodiesterase [サイクリックAMPホスホジエステラーゼ]. Kind of test: Cyclic AMP phosphodiesterase activity inhibition test (試験例5), HPLC. It is filed as biochemical. The settings on record: sample concentration at 50% inhibition of cyclic AMP phosphodiesterase activity, by interpolation; pH 7.5, 37℃, 30 min.

As for `CC1OC2OC3C(OCC(O)C3O)OC(=O)C34CCC(C)(C)CC3C3=CCC5C6(C)CC(O)C(OC7OC(CO)C(O)C(O)C7OC7OCC(OC(=O)CC(C)(O)CC(=O)OC1C(OC1OCC(O)C(O)C1O)C2O)C(O)C7O)C(C)(CO)C6CCC5(C)C3(C)CC4` (stereo not shown) [ツベイモシドI, ツベイモシドI(tubeimoside I)], the values for the activity at 3.125 µg/mL in test [1] and in test [3] were 139.4 ± 1.3% and 132 ± 3%, respectively. Besides, the activity at 12.5 µg/mL in test [2] turned out to be 127 ± 2.3%. This compound yielded a half-maximal inhibitory concentration (IC50) in test [4] of 178.9 µg/mL (≈ 136 µM).
